Measured values published in US8710045B2, “Agents for preventing and treating disorders involving modulation of the ryanodine receptors” (The Trustees of Columbia University in the City of New York, priority 2004, dated 2014).
Read-outs that look alike come from different tables or passages of the source.

Legend:
[1] = tested on: L-type calcium channel current; assay: S107 specificity: L-type calcium channel current; settings: 500 nM
C57BL/6J mice = assay: S107 chronic exercise model: treadmill run to exhaustion; format: in vivo, mouse
Description: Mice were allowed to recover for three days prior to the initiation of exercise. Standard food and water were provided ad libitum through the experiment.
Chronic Exercise Model: The daily swimming protocol consisted of twice-daily swimming sessions separated by a one-hour rest period. After an initial conditioning regimen lasting 5 days during which the swimming sessions were increased in 10 minute increments from 40 minutes each to 80 minutes each, the swimming sessions thereafter lasted 90 minutes each. A 30 cm wide by 30 cm long opaque acrylic tank was filled with tap water to a depth of at least 20 cm. Water was circulated and warmed to 32-34° C. using a separate reservoir with heating element, thermostat, and pump. 8 mice, balanced pair-wise with respect to genotype and/or treatment group, swam at any one time in the tank.
Treadmill performance: A Columbus Instruments (Columbus, Ohio) treadmill (Model: Exer-6M Treadmill with Treadmill Shock Detection Unit) with 6 lanes was used to run the mice. Mice were placed in their respective lanes with the shocking apparatus turned off and allowed to adjust to the surroundings for 10 minutes. The forward half of the treadmill was covered with aluminum foil to block out light and a desk lamp illuminated the shocking area at the rear of the treadmill. After the adjustment period, the treadmill was set to 10 meters/min, and the mice were trained to run with gentle prodding for 6 minutes. The electric current was then turned on, and the number of shocks delivered during the next two three minute intervals (training period) were recorded. The shock counter was then reset and visits to the shocking area and shocks delivered to each mouse were recorded at three-minute intervals until the end of the experiment. At regular intervals, the speed of the treadmill was ramped up from the initial 10 m/min to 24 m/min. The speed was increased no more than 2 m/min every 6 minutes. Task failure was defined when a mouse could not continue running despite gentle prodding.
Age and sex-matched WT mice were randomized to receive osmotic pumps containing either S107 or vehicle. […] Exercise capacity was assessed once a week by a level treadmill run to exhaustion during the nocturnal cycle of the mouse. The mice were not exercised on the same day as treadmill assessments. […] These studies are complicated by the training effect of repeated exercise which leads to improved performance due to enhanced musculature. Isometric force production was measured in EDL muscles in a tissue bath during field stimulation.

SMILES: COc1ccc2c(c1)CN(C(=O)C(=O)O)CCS2 [S36]
- plasma levels preventing exercise-induced sudden cardiac death compared with JTV-519 (FKBP12.6+/− mice; mouse, in vivo): lower plasma levels compared with JTV-519
- cardiac arrhythmias and sudden cardiac death (FKBP12.6+/− mice; plasma level 0.02 μM): prevent
- cardiac arrhythmias and sudden cardiac death (FKBP12.6+/− mice; plasma level 1 μM): prevent

SMILES: COc1ccc2c(c1)CN(C)CCS2 [S107]
- effect on L-type calcium channel current [1]: not to affect
- acute effect on WT treadmill exercise performance (C57BL/6J mice; 2.5 ug/hr osmotic pump, WT mice): no acute effect
- treadmill exercise capacity (time to failure) vs vehicle (C57BL/6J mice; Day 21, WT mice, p<0.05): relatively protected against a decline in treadmill exercise capacity
- treadmill performance (C57BL/6J mice; mice deficient in calstabin1): failed to improve treadmill performance
- body weight (C57BL/6J mice; throughout trial): did not result in a change
